Measurements taken from patent publication US8501713B2, “Drug combinations for the treatment of duchenne muscular dystrophy” (Summit Corporation PLC, priority 2007, dated 2013).

The molecules below were run on Utrophin A promoter linked to a luciferase reporter gene (assay: Luciferase reporter assay (murine H2K cells)). Conditions: Mus musculus, H2K mdx, luciferase level relative to control; H2K/mdx/Utro A reporter cells; compound 10 μM final concentration; read-out: Activity.
Type: cell-based
In short: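 Immortalized mdx mouse H2K myoblasts stably carrying a ~5 kb utrophin A promoter–luciferase construct, kept at 33° C, 10% CO2. After 24 hrs plating, compound added at 10 μM final for 48 hrs; luciferase light output read after in-situ lysis.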
Work on `CC(C)S(=O)(=O)c1ccc2oc(-c3ccc(Cl)c(Cl)c3)nc2c1` [Example 434, 2-(3,4-dichlorophenyl)-5-(isopropylsulfonyl)benzo[d]oxazole] yielded an activity at 10 µM of 301 to 400%.
With `CCS(=O)(=O)c1ccc2oc(-c3sccc3C)nc2c1` [Example 436, 5-(ethylsulfonyl)-2-(3-methylthiophen-2-yl)benzo[d]oxazole] the activity at 10 µM was 201 to 300%.
With `CCS(=O)(=O)c1ccc2oc(-c3ccc4ccccc4c3O)nc2c1` [Example 437, 2-(5-(ethylsulfonyl)benzo[d]oxazol-2-yl)naphthalen-1-ol] the activity at 10 µM was > 401%.
In the case of `CCS(=O)(=O)c1ccc2oc(-c3ccc4c(c3)OC(F)(F)O4)nc2c1` [Example 438, 2-(2,2-difluorobenzo[d][1,3]dioxol-5-yl)-5-(ethylsulfonyl)benzo[d]oxazole], the activity at 10 µM is reported as < 200%.
In the case of `Nc1ccc(-c2nc3cc(Cl)c(Cl)cc3o2)cc1` [Example 440, 4-(5,6-dichlorobenzo[d]oxazol-2-yl)aniline], the activity at 10 µM is reported as > 401%.
`CCS(=O)(=O)c1ccc2oc(-c3ccc(C)o3)nc2c1` [Example 441, 5-(ethylsulfonyl)-2-(5-methylfuran-2-yl)benzo[d]oxazole] was tested, and the activity at 10 µM was 301 to 400%.
Molecule `CC(C)C(=O)Nc1ccc(-c2nc3c(ccc4ccccc43)o2)cc1` [Example 442, N-(4-(naphtho[1,2-d]oxazol-2-yl)phenyl)isobutyramide] has an activity at 10 µM of 301 to 400%.
For `CCS(=O)(=O)c1ccc2oc(-c3cc(C)cs3)nc2c1` [Example 443, 5-(ethylsulfonyl)-2-(4-methylthiophen-2-yl)benzo[d]oxazole], the activity at 10 µM was > 401%.
In the case of `CCS(=O)(=O)c1ccc2oc(-c3ccc4c(c3)CCCC4)nc2c1` [Example 444, 5-(ethylsulfonyl)-2-(5,6,7,8-tetrahydronaphthalen-2-yl)benzo[d]oxazole], the activity at 10 µM is reported as 301 to 400%.
With `CCS(=O)(=O)c1ccc2oc(-c3ccc4occc4c3)nc2c1` [Example 445, 2-(benzofuran-5-yl)-5-(ethylsulfonyl)benzo[d]oxazole] the activity at 10 µM was > 401%.
With `CC(O)c1ccc2oc(-c3ccc(Cl)cc3)nc2c1` (stereo not shown) [Example 446, 2-(4′-chlorophenyl)-5-(1′-hydroxyethyl)-benzoxazole] the activity at 10 µM was > 401%.
Work on `CCS(=O)(=O)c1ccc2oc(-c3ccc(N)cc3O)nc2c1` [Example 447, 5-Amino-2-(5-(ethylsulfonyl)benzo[d]oxazol-2-yl)phenol] yielded an activity at 10 µM of 201 to 300%.
For `FC(F)(F)Oc1ccc2oc(-c3ccc4ccccc4c3)nc2c1` [Example 448, 2-(Naphthalen-2-yl)-5-(trifluoromethoxy)benzo[d]oxazole], the activity at 10 µM was > 401%.
With `O=C(O)c1ccc2oc(-c3ccc4ccccc4c3)nc2c1` [Example 449, 2-(Naphthalen-2-yl)benzo[d]oxazole-5-carboxylic acid] the activity at 10 µM was > 401%.
With `c1ccc2cc(-c3nc4ccccc4o3)ccc2c1` [Example 450, 2-(Naphthalen-2-yl)benzo[d]oxazole] the activity at 10 µM was > 401%.
With `CC(C)(C)c1ccc2oc(-c3ccc4ccccc4c3)nc2c1` [Example 451, 5-tert-Butyl-2-(naphthalen-2-yl)benzo[d]oxazole] the activity at 10 µM was < 200%.
With `Fc1cc2nc(-c3ccc4ccccc4c3)oc2cc1F` [Example 452, 5,6-Difluoro-2-(naphthalen-2-yl)benzo[d]oxazole] the activity at 10 µM was > 401%.
In the case of `CC(C)C(=O)Nc1ccc(-c2nc3ccccc3o2)cc1` [Example 454, N-(4-(Benzo[d]oxazol-2-yl)phenyl)isobutyramide], the activity at 10 µM is reported as > 401%.
With `CC(O)c1ccc2oc(-c3ccc(Cl)c(Cl)c3)nc2c1` (stereo not shown) [Example 456, 2-(3′,4′-Dichlorophenyl)-5-(1′-hydroxyethyl)-benzoxazole] the activity at 10 µM was > 401%.
`Cc1ccc2nc(-c3ccc(Cl)cc3)oc2c1` [Example 457, 2-(4-Chlorophenyl)-6-methylbenzo[d]oxazole] was tested, and the activity at 10 µM was > 401%.
In the case of `Cc1ccc2oc(-c3ccc4ccccc4c3)nc2c1` [Example 458, 5-Methyl-2-(naphthalen-2-yl)benzo[d]oxazole], the activity at 10 µM is reported as > 401%.

Same assay, conditions: luciferase level relative to control; H2K/mdx/Utro A reporter cells; compound 10 μM final concentration
For `CCN(CC)S(=O)(=O)c1ccc2oc(-c3ccc(Cl)cc3)nc2c1` [Example 439, 2-(4′-chlorophenyl)-5-(N,N-diethylsulfonamidyl)-benzoxazole], the Activity was “+ (Up to 200% relative to control)”.
`CC(=O)c1ccc2oc(-c3ccc(Cl)c(Cl)c3)nc2c1` [Example 453, 1-(2′-(3″,4″-Dichlorophenyl)benzo[d]oxazol-5′-yl)ethanone] was tested, and the Activity was “++++ (Above 401% relative to control)”.

Same assay, conditions: luciferase reporter assay in murine H2K cells; classified relative to control
In the case of `Clc1ccc(SCc2ccc(-c3nc4ccccc4[nH]3)cc2)cc1` [Example 460], the Activity is reported as “+ (Up to 200% relative to control)”.
`Clc1ccc(OCc2nc3ccccc3[nH]2)c(Cl)c1` [Example 461] was tested, and the Activity was “+++ (Between 301% and 400% relative to control)”.
With `Cc1ccc2sc(NC(=O)NC(=O)c3c(Cl)cccc3Cl)nc2c1` [Example 462] the Activity was “+ (Up to 200% relative to control)”.
`c1csc(-c2nc3ccccc3[nH]2)c1` [Example 463] was tested, and the Activity was “+ (Up to 200% relative to control)”.
With `O=C(Nc1cccc(-c2nc3ccccc3[nH]2)c1)c1ccccc1` [Example 464] the Activity was “+ (Up to 200% relative to control)”.
In the case of `Clc1ccc(OCc2nc3ccccc3n2Cc2ccccc2Cl)c(Cl)c1` [Example 465], the Activity is reported as “+ (Up to 200% relative to control)”.
In the case of `Cc1nc2ccc(NC(=O)Nc3ccccc3)cc2o1` [Example 466], the Activity is reported as “+ (Up to 200% relative to control)”.
In the case of `CNC(=O)Nc1ccc2nc(C)oc2c1` [Example 467], the Activity is reported as “+ (Up to 200% relative to control)”.
With `Cc1nc2ccc(NC(=O)NC(=O)c3ccccc3Cl)cc2o1` [Example 468] the Activity was “+ (Up to 200% relative to control)”.
With `Clc1ccc(-c2nc3cc(CN4CCCCC4)ccc3o2)cc1` [Example 469] the Activity was “+ (Up to 200% relative to control)”.
For `COc1ccc(-c2nc3ccccc3[nH]2)cc1` [Example 470], the Activity was “++ (Between 201% and 300% relative to control)”.
For `c1ccc(OCc2nc3ccccc3[nH]2)cc1` [Example 471], the Activity was “++ (Between 201% and 300% relative to control)”.
`Cn1c(-c2ccc([N+](=O)[O-])cc2)nc2ccccc21` [Example 472] was tested, and the Activity was “+ (Up to 200% relative to control)”.
With `COc1ccc(OCc2nc3ccccc3[nH]2)cc1` [Example 473] the Activity was “++ (Between 201% and 300% relative to control)”.
In the case of `Cn1c(COc2ccccc2)nc2ccccc21` [Example 474], the Activity is reported as “+ (Up to 200% relative to control)”.
`Nc1ccc(-c2nc3ccccc3[nH]2)cc1` [Example 475] was tested, and the Activity was “+ (Up to 200% relative to control)”.
For `Nc1ccc2nc(-c3ccc(-c4nc5ccc(N)cc5[nH]4)cc3)[nH]c2c1` [Example 476], the Activity was “+ (Up to 200% relative to control)”.
In the case of `O=[N+]([O-])c1ccc(-c2nc3ccccc3o2)cc1` [Example 477], the Activity is reported as “+ (Up to 200% relative to control)”.
In the case of `Nc1ccc(-c2nc3ccccc3o2)cc1` [Example 478], the Activity is reported as “++ (Between 201% and 300% relative to control)”.
With `Cc1ccc(-c2nc3ccccc3s2)cc1N` [Example 479] the Activity was “++ (Between 201% and 300% relative to control)”.
`Nc1ccc2oc(-c3ccc(Cl)c(Cl)c3)nc2c1` [Example 480] was tested, and the Activity was “++ (Between 201% and 300% relative to control)”.
In the case of `CCc1ccc(-c2nc3cc(N)ccc3o2)cc1` [Example 481], the Activity is reported as “++ (Between 201% and 300% relative to control)”.
With `Cc1cc(C)cc(-c2nc3cc(N)ccc3o2)c1` [Example 482] the Activity was “+ (Up to 200% relative to control)”.
